US20220304953A1, “PHARMACEUTICAL DOSAGE FORM COMPRISING METFORMIN AND CALCIUM CITRATE” (DSM IP ASSETS B.V., priority 2019, published 2022)

Assays:
[1] = compared to calcium carbonate; cited from earlier work
[2] = Tablet hardness (Krämer UTS4 1, force needed to break a tablet axially); type: physicochemical; conditions: tablets of example 2 with the named calcium salt, Prosolv SMCC90 binder; in words
Procedure: For compressing the tablets, a single punch press (Korsch XP-1, available at Korsch, Berlin) was used.
Tablet hardness was then measured using a Krämer UTS4 1 apparatus.
Said four tablet mixtures were compressed into tablets, similar to example 2. Tablet hardness was then measured.
Tablet hardness was measured as described in USP <1217> and EP<2.9.8.> with a Krämer UTS4 1 tester (Kraemer Elektronik GmbH, Darmstadt, Germany). The inventors measured the force needed to break a tablet axially. Presented are the average values of 10 measurements.

O=C([O-])CC(O)(CC(=O)[O-])C(=O)[O-].O=C([O-])CC(O)(CC(=O)[O-])C(=O)[O-].[Ca+2].[Ca+2].[Ca+2] [calcium citrate]
bioavailability [1]: superior bioavailability than calcium carbonate

anhydrous calcium citrate
tablet hardness (compression profiles, FIG. 1) [2]: a lot worse
